Measurements reported in ChEMBL document CHEMBL1201862, “PubChem BioAssay data set” (2004).
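Cells were grown in 96-well plates and exposed to each compound for 48 hours at five concentrations; endpoints were interpolated linearly between bracketing concentrations, or set to the highest concentration if not reached. GI50 marks 50% less growth.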 Activity calls are given as the source filed them. Cut-off read from the data, not from the text of the source: active = GI50 up to about 1.1 µM and inactive = higher.

What was measured:
Experiment in all cases: inhibition of tumour cell growth, NCI panel, 48 h
[1] = tested on: A498
[2] = tested on: A549
[3] = tested on: CAKI-1
[4] = tested on: CCRF-CEM
[5] = tested on: COLO 205
[6] = tested on: DLD-1
[7] = tested on: DMS-114
[8] = tested on: DMS-273
[9] = tested on: EKVX
[10] = tested on: HCC 2998
[11] = tested on: HCT-116
[12] = tested on: HCT-15
[13] = tested on: HL-60
[14] = tested on: HOP-18
[15] = tested on: HOP-62
[16] = tested on: HOP-92
[17] = tested on: HT-29
[18] = tested on: IGROV-1
[19] = tested on: K562
[20] = tested on: KM-20L2
[21] = tested on: KM12
[22] = tested on: LOX IMVI
[23] = tested on: M19-MEL
[24] = tested on: MCF7
[25] = tested on: MOLT-4
[26] = tested on: Malme-3M
[27] = tested on: NCI-H226
[28] = tested on: NCI-H23
[29] = tested on: NCI-H460
[30] = tested on: NCI-H522
[31] = tested on: NCI/ADR-RES
[32] = tested on: OVCAR-3
[33] = tested on: OVCAR-4
[34] = tested on: OVCAR-5
[35] = tested on: OVCAR-8
[36] = tested on: RPMI-8226
[37] = tested on: RXF 393
[38] = tested on: SF-268
[39] = tested on: SF-295
[40] = tested on: SF-539
[41] = tested on: SK-MEL-28
[42] = tested on: SK-MEL-2
[43] = tested on: SK-MEL-5
[44] = tested on: SK-OV-3
[45] = tested on: SN12C
[46] = tested on: SNB-19
[47] = tested on: SNB-75
[48] = tested on: SNB-78
[49] = tested on: SW-620
[50] = tested on: U-251
[51] = tested on: UACC-257
[52] = tested on: UACC-62
[53] = tested on: UO-31
[54] = tested on: XF498
[55] = tested on: 786-0
[56] = tested on: ACHN
[57] = tested on: LXFL 529
[58] = tested on: M14
[59] = tested on: SR
[60] = tested on: TK-10

## O=C1CNC(=O)N1 [HYDANTOIN]
[1]
  GI50: > 1120 µM (inactive)
[2]
  GI50: > 1120 µM (inactive)
[3]
  GI50: > 1120 µM (inactive)
[4]
  GI50: 681 µM (inactive)
[5]
  GI50: > 1120 µM (inactive)
[6]
  GI50: > 1120 µM (inactive)
[7]
  GI50: > 1120 µM (inactive)
[8]
  GI50: > 1120 µM (inactive)
[9]
  GI50: > 1120 µM (inactive)
[10]
  GI50: > 1120 µM (inactive)
[11]
  GI50: > 1120 µM (inactive)
[12]
  GI50: > 1120 µM
[13]
  GI50: > 1120 µM (inactive)
[14]
  GI50: > 1120 µM (inactive)
[15]
  GI50: > 1120 µM (inactive)
[16]
  GI50: > 11.2 µM (inactive)
[17]
  GI50: > 1120 µM (inactive)
[18]
  GI50: > 1120 µM (inactive)
[19]
  GI50: 706 µM (inactive)
[20]
  GI50: > 1120 µM (inactive)
[21]
  GI50: > 1120 µM (inactive)
[22]
  GI50: > 1120 µM (inactive)
[23]
  GI50: > 1120 µM (inactive)
[24]
  GI50: > 1120 µM (inactive)
[25]
  GI50: > 1120 µM (inactive)
[26]
  GI50: > 1120 µM (inactive)
[27]
  GI50: 11.2 µM (inactive)
[28]
  GI50: > 1120 µM (inactive)
[29]
  GI50: > 1120 µM (inactive)
[30]
  GI50: > 1120 µM (inactive)
[31]
  GI50: > 1120 µM (inactive)
[32]
  GI50: > 1120 µM (inactive)
[33]
  GI50: > 1120 µM (inactive)
[34]
  GI50: > 1120 µM (inactive)
[35]
  GI50: > 1120 µM (inactive)
[36]
  GI50: > 1120 µM (inactive)
[37]
  GI50: > 1120 µM (inactive)
[38]
  GI50: > 1120 µM (inactive)
[39]
  GI50: > 1120 µM (inactive)
[40]
  GI50: > 1120 µM (inactive)
[41]
  GI50: > 1120 µM (inactive)
[42]
  GI50: > 1120 µM (inactive)
[43]
  GI50: > 1120 µM (inactive)
[44]
  GI50: > 1120 µM (inactive)
[45]
  GI50: > 1120 µM (inactive)
[46]
  GI50: > 1120 µM (inactive)
[47]
  GI50: 177 µM (inactive)
[48]
  GI50: > 1120 µM (inactive)
[49]
  GI50: > 1120 µM (inactive)
[50]
  GI50: > 1120 µM (inactive)
[51]
  GI50: > 1120 µM (inactive)
[52]
  GI50: > 1120 µM (inactive)
[53]
  GI50: > 1120 µM (inactive)
[54]
  GI50: > 11.2 µM (inactive)

## CCOC(=O)NC(=O)c1cn(CCN(CCO)C(=O)NCCCCCCNC(=O)N(CCO)CCn2cc(C(=O)NC(=O)OCC)c(=O)[nH]c2=O)c(=O)[nH]c1=O
[1]
  GI50: > 100 µM (inactive)
[2]
  GI50: > 100 µM (inactive)
[3]
  GI50: > 100 µM (inactive)
[4]
  GI50: > 100 µM (inactive)
[5]
  GI50: > 100 µM (inactive)
[6]
  GI50: > 100 µM (inactive)
[7]
  GI50: > 100 µM (inactive)
[8]
  GI50: > 100 µM (inactive)
[9]
  GI50: > 100 µM (inactive)
[10]
  GI50: > 100 µM (inactive)
[11]
  GI50: > 100 µM (inactive)
[12]
  GI50: > 100 µM
[13]
  GI50: > 100 µM (inactive)
[14]
  GI50: > 100 µM (inactive)
[15]
  GI50: > 100 µM (inactive)
[16]
  GI50: > 100 µM (inactive)
[17]
  GI50: > 61 µM (inactive)
[18]
  GI50: > 100 µM (inactive)
[19]
  GI50: > 100 µM (inactive)
[20]
  GI50: > 100 µM (inactive)
[21]
  GI50: > 100 µM (inactive)
[22]
  GI50: > 100 µM (inactive)
[23]
  GI50: > 100 µM (inactive)
[24]
  GI50: > 100 µM (inactive)
[25]
  GI50: > 100 µM (inactive)
[26]
  GI50: > 100 µM (inactive)
[27]
  GI50: > 100 µM (inactive)
[28]
  GI50: > 100 µM (inactive)
[29]
  GI50: > 100 µM (inactive)
[30]
  GI50: > 100 µM (inactive)
[31]
  GI50: > 100 µM (inactive)
[32]
  GI50: > 100 µM (inactive)
[33]
  GI50: > 100 µM (inactive)
[34]
  GI50: > 100 µM (inactive)
[35]
  GI50: > 100 µM (inactive)
[36]
  GI50: > 100 µM (inactive)
[37]
  GI50: > 100 µM (inactive)
[38]
  GI50: > 100 µM (inactive)
[39]
  GI50: > 100 µM (inactive)
[40]
  GI50: > 100 µM (inactive)
[41]
  GI50: > 100 µM (inactive)
[42]
  GI50: > 100 µM (inactive)
[43]
  GI50: > 100 µM (inactive)
[45]
  GI50: > 100 µM (inactive)
[46]
  GI50: > 100 µM (inactive)
[47]
  GI50: > 100 µM (inactive)
[48]
  GI50: > 100 µM (inactive)
[49]
  GI50: > 100 µM (inactive)
[50]
  GI50: > 100 µM (inactive)
[51]
  GI50: > 100 µM (inactive)
[52]
  GI50: > 100 µM (inactive)
[53]
  GI50: > 100 µM (inactive)
[54]
  GI50: > 100 µM (inactive)

## OC12CCC3(O)c4ccccc4C3C1c1ccccc12 (stereo not given)
[55]
  GI50: > 100 µM (inactive)
[2]
  GI50: > 100 µM (inactive)
[56]
  GI50: > 100 µM (inactive)
[4]
  GI50: > 100 µM (inactive)
[5]
  GI50: > 100 µM (inactive)
[8]
  GI50: > 100 µM (inactive)
[9]
  GI50: > 100 µM (inactive)
[11]
  GI50: > 100 µM (inactive)
[12]
  GI50: > 100 µM
[13]
  GI50: > 100 µM (inactive)
[14]
  GI50: > 100 µM (inactive)
[15]
  GI50: > 100 µM (inactive)
[17]
  GI50: > 100 µM (inactive)
[19]
  GI50: > 100 µM (inactive)
[20]
  GI50: > 100 µM (inactive)
[21]
  GI50: > 100 µM (inactive)
[22]
  GI50: > 100 µM (inactive)
[57]
  GI50: > 100 µM (inactive)
[58]
  GI50: > 100 µM (inactive)
[23]
  GI50: > 100 µM (inactive)
[25]
  GI50: > 100 µM (inactive)
[26]
  GI50: > 100 µM (inactive)
[27]
  GI50: > 100 µM (inactive)
[28]
  GI50: > 100 µM (inactive)
[29]
  GI50: > 100 µM (inactive)
[30]
  GI50: > 100 µM (inactive)
[33]
  GI50: > 100 µM (inactive)
[35]
  GI50: > 100 µM (inactive)
[36]
  GI50: > 100 µM (inactive)
[37]
  GI50: > 100 µM (inactive)
[38]
  GI50: > 100 µM (inactive)
[39]
  GI50: > 100 µM (inactive)
[41]
  GI50: > 100 µM (inactive)
[42]
  GI50: > 100 µM (inactive)
[43]
  GI50: > 100 µM (inactive)
[44]
  GI50: > 100 µM (inactive)
[45]
  GI50: > 100 µM (inactive)
[46]
  GI50: > 100 µM (inactive)
[47]
  GI50: > 100 µM (inactive)
[48]
  GI50: > 100 µM (inactive)
[59]
  GI50: > 100 µM (inactive)
[49]
  GI50: > 100 µM (inactive)
[60]
  GI50: > 100 µM (inactive)
[50]
  GI50: > 100 µM (inactive)
[51]
  GI50: > 100 µM (inactive)
[52]
  GI50: > 100 µM (inactive)
[53]
  GI50: > 100 µM (inactive)
[54]
  GI50: > 100 µM (inactive)
